Measured values as given in patent USRE37781E1, “Substituted cyclic carbonyls and derivatives thereof useful as retroviral protease inhibitors” (DuPont Pharmaceuticals Company, priority 1991, dated 2002).
In brackets after ≈: the same amount, converted by molar mass. Where two headings read alike, the source gives them in different places.

What was measured:
[1] = system: HIV-1 (RF) in MT-2 cells; experiment: microbe, parasite or virus in culture; format: cell-based
In short: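 HIV-1 laboratory strains (RF, MN, IIIB) grown in H9 cells in RPMI 1640 with 5% FCS; infections in MT-2 cells. Viral RNA quantified by hybridization with biotinylated gag/pol capture probes on streptavidin plates and alkaline phosphatase-conjugated reporter probes; BH10 gag-pol in vitro transcripts serve as RNA standards.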

[2] = molecular target: T1, HIV protease (Human immunodeficiency virus type 1 group M subtype B, UniProt P04585); experiment: biochemical; set-up: species or system HIV-1
T1 construct: plasmid containing HIV protease under the control of an inducible T7 promoter; made in house; host or cells: E. coli (inclusion bodies, T7 promoter)
Method: HIV Protease Inhibition Assay—Spectroscopic Method
Inclusion bodies were solubilized in 8M urea, 50 mM tris pH 8.0. Protease activity was recovered by dilution 20-fold into buffer containing 50 mM sodium acetate pH 5.5, 1 mM EDTA, 10% glycerol and 5% ethylene glycol. Enzyme was used at a final concentration of 1.0-10 ug/ml.
Stock solutions of 10 mM were prepared in DMSO.
All further dilutions were done in DMSO.

[3] = Human immunodeficiency virus 1, MT2, Table 1c, read-out: IC90
[4] = Human immunodeficiency virus 1, MT2, Table 2A, read-out: IC90
[5] = Human immunodeficiency virus 1, MT2, second table headed Table 2A, read-out: IC90
[6] = second table headed Table 2A, read-out: Ki

Structure (SMILES)	IC90 [1, 3]	melting point	Ki ([2]; Ki)	IC90 [1, 4]	IC90 [1, 5]	Ki ([2]; Table 2A, read-out: Ki)	Ki [2, 6]	IC90 ([1]; Human immunodeficiency virus 1, MT2)	Ki ([2]; Ki, Table 1c, cyclic guanidines)
N#CN=C1N(Cc2ccc(OCc3ccccc3)cc2)C(Cc2ccccc2)C(O)C(O)C(Cc2ccccc2)N1Cc1ccc(OCc2ccccc2)cc1 (stereo not shown) [Example 1BT]	> 100 µg/mL	90.1 °C	10 to 1000 nM						
C=CCN1C(=NC#N)N(CC=C)C(Cc2ccccc2)C(O)C(O)C1Cc1ccccc1 (stereo not shown) [Example 1BW]	10 to 100 µg/mL (≈ 23.2 to 232 µM)	70.2 °C	10 to 1000 nM						
CCCN1C(=NC#N)N(CCC)C(Cc2ccccc2)C(O)C(O)C1Cc1ccccc1 (stereo not shown) [Example 1CL]	< 10 µg/mL	216.6 °C	10 to 1000 nM						
C=CCN1C(=O)N(CC=C(C)C)C(Cc2ccccc2)C(O)C(O)C1Cc1ccccc1 (stereo not shown) [Example 2C]		62 °C		< 10 µg/mL	< 10 µg/mL	< 10 nM	< 10 nM		
O=C1N(Cc2cccc(OC(F)(F)F)c2)C(Cc2ccccc2)C(O)C(O)C(Cc2ccccc2)N1Cc1cccc(OC(F)(F)F)c1 (stereo not shown) [Example 2J]		128.3 °C		< 10 µg/mL	< 10 µg/mL	10 to 1000 nM	10 to 1000 nM		
N#CN=C1N(Cc2ccc([N+](=O)[O-])cc2)C(Cc2ccccc2)C(O)C(O)C(Cc2ccccc2)N1Cc1ccc([N+](=O)[O-])cc1 (stereo not shown) [Example 1CB]		130.3 °C						10 to 100 µg/mL (≈ 16.1 to 161 µM)	10 to 1000 nM
CC(C)=CCN1C(=O)N(CC=C(C)C)C(Cc2ccccc2)C(O)C(O)C1Cc1ccccc1 (stereo not shown) [Example 2A]		165.1 °C		< 10 µg/mL	< 10 µg/mL	< 10 nM	< 10 nM		
N#CN=C1N(CC2CCCC2)C(Cc2ccccc2)C(O)C(O)C(Cc2ccccc2)N1CC1CCCC1 (stereo not shown) [Example 1BV]	< 10 µg/mL	99.7 °C	< 10 nM						
O=C1N(Cc2ccc(OC(F)(F)F)cc2)C(Cc2ccccc2)C(O)C(O)C(Cc2ccccc2)N1Cc1ccc(OC(F)(F)F)cc1 (stereo not shown) [Example 2L]		136.8 °C		< 10 µg/mL	< 10 µg/mL	10 to 1000 nM	10 to 1000 nM		
CC(C)=CCN1C(=NC#N)N(CC=C(C)C)C(Cc2ccccc2)C(O)C(O)C1Cc1ccccc1 (stereo not shown) [Example 1CI]	< 10 µg/mL	72.9 °C	10 to 1000 nM						
N#CN=C1N(Cc2cccc(N)c2)C(Cc2ccccc2)C(O)C(O)C(Cc2ccccc2)N1Cc1cccc(N)c1 (stereo not shown) [Example 1CF]	< 10 µg/mL	114.4 °C	< 10 nM						
N#CN=C1N(Cc2ccccc2)C(Cc2ccccc2)C(O)C(O)C(Cc2ccccc2)N1Cc1ccccc1 (stereo not shown) [Example 1BZ]	< 10 µg/mL	94 °C	10 to 1000 nM						
N#CN=C1N(Cc2cccc(CO)c2)C(Cc2ccccc2)C(O)C(O)C(Cc2ccccc2)N1Cc1cccc(CO)c1 (stereo not shown) [Example 1CO]	< 10 µg/mL	193.8 °C	< 10 nM						
N#CN=C1N(CC2CC2)[C@H](Cc2ccccc2)[C@H](O)[C@@H](O)[C@@H](Cc2ccccc2)N1CC1CC1 [Example 1BS]	< 10 µg/mL	211.2 °C	10 to 1000 nM						
N#CN=C1N(Cc2cccc(O)c2)C(Cc2ccccc2)C(O)C(O)C(Cc2ccccc2)N1Cc1cccc(O)c1 (stereo not shown) [Example 1CD]	< 10 µg/mL	124 °C	< 10 nM						
N#CN=C1N(Cc2ccc3ccccc3c2)C(Cc2ccccc2)C(O)C(O)C(Cc2ccccc2)N1Cc1ccc2ccccc2c1 (stereo not shown) [Example 1BY]	> 100 µg/mL	111.1 °C	10 to 1000 nM						
CN1C(=O)N(Cc2ccccc2)C(Cc2ccccc2)C(O)C(O)C1Cc1ccccc1 (stereo not shown) [Example 2H]		81 °C		< 10 µg/mL	< 10 µg/mL	10 to 1000 nM	10 to 1000 nM		
N#CN=C1N(Cc2ccc(CO)cc2)C(Cc2ccccc2)C(O)C(O)C(Cc2ccccc2)N1Cc1ccc(CO)cc1 (stereo not shown) [Example 1CN]	< 10 µg/mL	100.9 °C	10 to 1000 nM						
N#CN=C1N(CC2CCC2)C(Cc2ccccc2)C(O)C(O)C(Cc2ccccc2)N1CC1CCC1 (stereo not shown) [Example 1CK]	< 10 µg/mL	235.5 °C	< 10 nM						
